Results published in patent EP2818471A1, “Nitrogen bicyclic compounds as inhibitors for Scyl1 and Grk5” (Max-Planck-Gesellschaft zur Förderung der Wissenschaften …, priority 2013, dated 2014).

test system: beta-TC6 cells; assay: Insulin HTRF assay, relative activity Ar normalized to sunitinib; type: cell-based; settings: Mus musculus, normalized to positive control sunitinib (5 µM = 100%), Table 10
Description: For further screening of compounds derived from compounds described above for their ability to regulate insulin release an insulin HTRF® (Homogeneous Time-Resolved Fluorescence; Cisbio International, France) was used. This assay is based on two antibodies against insulin binding to different epitopes of insulin. One of these antibodies is coupled to Europium (Ab-Eu-Cryptate) and the other one to the fluorophore XL665 (Ab-XL665). Is insulin secreted into the supernatant of cell culture both antibodies can bind to insulin and come therefore into close proximity which allows upon excitation that energy transfer between (FRET) the long-life fluorescent donor Europium (cryptate) and the acceptors XL665. FRET increases proportionally with insulin concentration.
The automated assay protocol is as follows: • On day 1 15k beta-TC6 cells per well were seeded for 24 or 48 h in 50 µl complete medium. On day 2 or respective on day 3 the medium is removed and cells are washed with 60 µl 1xPBS and 20 µl induction buffer is added using BioTek washer. Subsequently, 10 µl Sunitininb (5 µM f.c.) or the test compound in induction buffer; 0.5% f.c. DMSO (CyBi-well) is transferred to the cells. The cells are then incubated at 37°C for 2, 3, 4h.
The HTRF assay is carried out using Greiner 384-well 784075 assay plates. First 10 µl supernatant is transferred from the cell plates in HTRF plates (CyBi-well). 10 µl of 0, 1, 2, and 4 ng/ml Insulin standard controls in assay medium is used as a control. To each well 10 µl of combined 1:25 Ab-XL665 (Acc) and 1:20 Ab-Eu-Cryptate (WellMate) are added and incubated for 120 min at RT in the dark. Finally HTRF is measured on ViewLux ultra high throughput microplate imager (PerkinElmer).
The evaluation software DataFactoty derives relative activities Ar according to the following equation: Ar = (V-R(0%control))/(R(100%control) -R(0%control)) × 100 [formula] […]
The activity of the compounds was classified according to their Ar (relative activity) into the following ranges: Ar ≥ 100% + + + +; 50% ≤ Ar < 100% + + +; 20% ≤ Ar < 50% + +; 10% < Ar < 20% + [formula] Table 10. Ar (relative activity) values of inventive compounds

Row | SMILES | Emax [%]
1 | N#Cc1cccc(-c2cnc3cccnn23)c1 [compound 82, 3-imidazo[1,2-b]pyridazin-3-ylbenzonitrile] | 20 to 50
2 | Cc1cccc(-c2cnc3cccnn23)c1 [compound 84, 3-(m-tolyl)imidazo[1,2-b]pyridazine] | 10 to 20
3 | CCOc1ccc(-c2cnc3cccnn23)cc1 [compound 85, 3-(4-ethoxyphenyl)imidazo[1,2-b]pyridazine] | 10 to 20
4 | CSc1ccccc1-c1cnc2cccnn12 [compound 86, 3-(2-methylsulfanylphenyl)imidazo[1,2-b]pyridazine] | 50 to 100
5 | CC(=O)c1ccc(-c2cnc3cccnn23)cc1 [compound 87, 1-(4-imidazo[1,2-b]pyridazin-3-ylphenyl)ethanone] | 10 to 20
6 | O=C(NC1CC1)c1ccc(-c2cnc3cccnn23)cc1 [compound 89, N-cyclopropyl-4-imidazo[1,2-b]pyridazin-3-yl-benzamide] | 10 to 20
7 | CS(=O)(=O)Nc1ccc(-c2cnc3cccnn23)cc1 [compound 96, N-(4-imidazo[1,2-b]pyridazin-3-ylphenyl)methanesulfonamide] | 10 to 20
8 | NC(=O)c1ccc(-c2ccc3ncc(-c4ccccc4)n3n2)cc1 [compound 100, 4-(3-phenylimidazo[1,2-b]pyridazin-6-yl)benzamide] | 20 to 50
9 | c1ccc(-c2ccc3ncc(-c4ccc5c(c4)OCO5)n3n2)cc1 [compound 101, 3-(1,3-benzodioxol-5-yl)-6-phenyl-imidazo[1,2-b]pyridazine] | 20 to 50
10 | Fc1cccc(-c2ccc3ncc(-c4ccc5c(c4)OCO5)n3n2)c1 [compound 104, 3-(1,3-benzodioxol-5-yl)-6-(3-fluorophenyl)imidazo[1,2-b]pyridazine] | 20 to 50
11 | CS(=O)(=O)Nc1cccc(-c2ccc3ncc(-c4ccncc4)n3n2)c1 [compound 105, N-[3-[3-(4-pyridyl)imidazo[1,2-b]pyridazin-6-yl]phenyl]methanesulfonamide] | 20 to 50
12 | OCc1ccc(-c2ccc3ncc(-c4cccnc4)n3n2)cc1 [compound 106, [4-[3-(3-pyridyl)imidazo[1,2-b]pyridazin-6-yl]phenyl]methanol] | 20 to 50
13 | c1cncc(-c2cnc3ccc(-c4ccoc4)nn23)c1 [compound 107, 6-(3-furyl)-3-(3-pyridyl)imidazo[1,2-b]pyridazine] | 20 to 50
14 | c1cncc(-c2cnc3ccc(-c4cccs4)nn23)c1 [compound 108, 3-(3-pyridyl)-6-(2-thienyl)imidazo[1,2-b]pyridazine] | 20 to 50
15 | CC(=O)Nc1cccc(-c2cnc3ccc(-c4cccnc4)nn23)c1 [compound 109, N-[3-[6-(3-pyridyl)imidazo[1,2-b]pyridazin-3-yl]phenyl]acetamide] | 10 to 20
16 | COc1ccccc1-c1ccc2ncc(-c3ccc(F)c(Cl)c3)n2n1 [compound 113, 3-(3-chloro-4-fluoro-phenyl)-6-(2-methoxyphenyl)imidazo[1,2-b]pyridazine] | 20 to 50
17 | COc1cc(-c2ccc3ncc(-c4ccc(F)c(Cl)c4)n3n2)cc(OC)c1OC [compound 114, 3-(3-chloro-4-fluoro-phenyl)-6-(3,4,5-trimethoxyphenyl)imidazo[1,2-b]pyridazine] | 10 to 20
18 | COc1ccccc1-c1ccc2ncc(-c3cccc(OC(F)(F)F)c3)n2n1 [compound 115, 6-(2-methoxyphenyl)-3-[3-(trifluoromethoxy)phenyl]imidazo[1,2-b]pyridazine] | 10 to 20

Row | SMILES | Emax [%]
19 | NC(=O)c1ccc(-c2ccc3ncc(-c4cccc(OC(F)(F)F)c4)n3n2)cc1 [compound 117, 4-[3-[3-(trifluoromethoxy)phenyl]imidazo[1,2-b]pyridazin-6-yl]benzamide] | 20 to 50
20 | CS(=O)(=O)c1ccc(-c2cnc3ccc(Cc4ccccc4)nn23)cc1 [compound 119, 6-benzyl-3-(4-methylsulfonylphenyl)imidazo[1,2-b]pyridazine] | 10 to 20
21 | COc1cncc(-c2cnc3ccc(Cc4ccc(F)cc4)nn23)c1 [compound 122, 6-[(4-fluorophenyl)methyl]-3-(5-methoxy-3-pyridyl)imidazo[1,2-b]pyridazine] | 20 to 50
22 | Nc1cccc(-c2ccc3ncc(-c4cccc(Cl)c4)n3n2)c1 [compound 123, 3-[3-(3-chlorophenyl)imidazo[1,2-b]pyridazin-6-yl]an iline] | 20 to 50
23 | COc1ccc(-c2ccc3ncc(-c4cccc(Cl)c4)n3n2)cc1OC [compound 124, 3-(3-chlorophenyl)-6-(3,4-dimethoxyphenyl)imidazo[1,2-b]pyridazine] | 20 to 50
24 | COc1ccc(-c2ccc3ncc(-c4cccc(Cl)c4)n3n2)c(C)c1 [compound 125, 3-(3-chlorophenyl)-6-(4-methoxy-2-methyl-phenyl)imidazo[1,2-b]pyridazine] | 10 to 20
25 | COc1cccc(-c2ccc3ncc(-c4cccc(Cl)c4)n3n2)c1 [compound 126, 3-(3-chlorophenyl)-6-(3-methoxyphenyl)imidazo[1,2-b]pyridazine] | 10 to 20
26 | Oc1cccc(-c2cnc3ccc(-c4ccc(F)cc4)nn23)c1 [compound 127, 3-[6-(4-fluorophenyl)imidazo[1,2-b]pyridazin-3-yl]phenol] | 20 to 50
27 | Oc1cccc(-c2cnc3ccc(-c4cccc5ncccc45)nn23)c1 [compound 128, 3-[6-(5-quinolyl)imidazo[1,2-b]pyridazin-3-yl]phenol] | 10 to 20
28 | CN(C)c1ccc(-c2ccc3ncc(-c4ccc(CO)cc4)n3n2)cc1 [compound 129, [4-[6-(4-dimethylaminophenyl)imidazo[1,2-b]pyridazin-3-yl]phenyl]methanol] | 50 to 100
29 | OCc1ccc(-c2cnc3ccc(-c4cncnc4)nn23)cc1 [compound 130, [4-(6-pyrimidin-5-ylimidazo[1,2-b]pyridazin-3-yl)phenyl]methanol] | 10 to 20
30 | OCc1cccc(-c2cnc3ccc(-c4cccc(Oc5ccccc5)c4)nn23)c1 [compound 133, [3-[6-(3-phenoxyphenyl)imidazo[1,2-b]pyridazin-3-yl]phenyl]methanol] | 20 to 50
31 | FC(F)(F)c1cccc(-c2cnc3ccc(-c4ccncc4)nn23)c1 [compound 134, 6-(4-pyridyl)-3-[3-(trifluoromethyl)phenyl]imidazo[1,2-b]pyridazine] | 20 to 50
32 | Oc1cccc(-c2ccc3ncc(-c4cccc(C(F)(F)F)c4)n3n2)c1 [compound 135, 3-[3-[3-(trifluoromethyl)phenyl]imidazo[1,2-b]pyridazin-6-yl]phenol] | 20 to 50
33 | FC(F)(F)c1cccc(-c2cnc3ccc(C4CC4)nn23)c1 [compound 136, 6-cyclopropyl-3-[3-(trifluoromethyl)phenyl]imidazo[1,2-b]pyridazine] | 10 to 20
34 | COc1cc(-c2cnc3ccc(-c4cccc(OC(F)(F)F)c4)nn23)ccc1O [compound 138, 2-methoxy-4-[6-[3-(trifluoromethoxy)phenyl]imidazo[1,2-b]pyridazin-3-yl]phenol] | 10 to 20
35 | NC(=O)c1ccc(-c2cnc3ccc(Cc4ccc(F)c(F)c4)nn23)cc1 [compound 145, 4-[6-[(3,4-difluorophenyl)methyl]imidazo[1,2-b]pyridazin-3-yl]benzamide] | 20 to 50
36 | CC(=O)Nc1ccc(-c2cnc3ccc(-c4ccc(N5CCOCC5)cc4)nn23)cc1 [compound 147, N-[4-[6-(4-morpholinophenyl)imidazo[1,2-b]pyridazin-3-yl]phenyl]acetamide] | ≥ 100
